Measurements from patent publication US20250263774A1, “DISCOVERING NEW XENOBIOTIC SUBSTRATES OF AN UDP-GLYCOSYLTRANSFERASE WITH A HIGH-THROUGHPUT METHOD” (priority 2024, published 2025).

Experiments:
[1] = patients that administer irinotecan; SN-38 excreted into the intestines via bile; cited from earlier work
[2] = test system: UGT71G1; assay: High-throughput fluorescent assay for screening candidates of UGT glycosylation (UDP release, MicroMolar UDP assay kit); assay type: biochemical, Medicago truncatula; conditions: 6 μg UGT71G1, UDP-glucose 50 μM, substrate candidate 0.8 to 160 μM, 37° C. 45 minutes, ex 485 nm / em 535 nm
Procedure: High-throughput fluorescent assay for screening candidates of UGT glycosylation. Characterization of UDP formation involved the MicroMolar UDP assay kit (ProFoldin). For each reaction, reagents used from this kit include 3 μL of 10× buffer, 0.3 μL of 100×MUD reagent 1, and 0.3 μL of 100×MUD reagent 2. […] Each sample was then mixed with 30 μL of 1× fluorescence dye from the MICROMOLAR UDP assay kit and fluorescence was measured immediately with a BIOTEK SYNERGY H1 M florescence microplate reader at excitation 485 nm and emission 535 nm.
For a high-through method to robustly detect UGT activities with different glycosyl acceptor, it is necessary to target a change that is independent from the acceptor molecule. UDP-glycosyltransferases take UDP-glucose as a co-substrate; while the glucosyl moiety is transferred to the acceptor molecule, UDP is released as a by-product (FIG. 1A). Thus, UGT activities can be detected by the rise in UDP level in the reaction mixture. In our method to monitor an increase in UDP concentration, the UGT71G1 enzymatic reaction was coupled to the UDP assay kit, in which the release of UDP leads to an increase in fluorescence intensity.

[3] = test system: UGT71G1; assay: LC-MS/MS analysis of substrates and glycosylated products of the UGT71G1 reaction; assay type: biochemical, Medicago truncatula; conditions: for validation as UGT71G1 substrate (glycosylated product detected): substrate 10 μM, UDP-glucose 50 μM, pH 7.4, 37° C., 2 hours 3HF, 4 hours SN-38, 24 hours BPA
Procedure: Liquid chromatography-coupled mass spectrometric analysis of substrates and products. The glycosylation reaction for plant UGT71G1 enzyme extracted from E. coli BL21(DE3) cells containing UGT71G1-pET28a was performed similar to the glucuronidation reaction as those published previously 17 with minor modification. Briefly, the enzyme UGT71G1 (final concentration 0.05-0.5 μg/ml) was mixed with UDP-glucose (50 μM) and substrate (final concentration 10 μM) in 50 mM potassium phosphate buffer (pH 7.4) to reach a final volume of 200 μL. This reaction mixture was incubated at 37° C. and at various time points for each substrate to obtain the highest product-to-substrate ratio: 2 hours for 3HF, 4 hours for SN-38, and 24 hours for BPA; reactions were ended with the addition of 200 μL methanol. The samples were centrifuged at 14000 rpm for 15 mins and supernatant was subjected to UPLC-MS/MS system for analysis after appropriate dilution with 50% MeOH solution.
LC-MS/MS analysis was performed with an EXIONLC™ UHPLC system coupled with API 5500 Q-Trap triple quadrupole mass spectrometer. A BEH C18 column (50×2.1 mm I.D., 1.7 μm, Waters, Milford, MA, USA) was used for liquid chromatography. For mobile phase, mobile phase A (MPA) was 0.1% formic acid in water and mobile phase B (MPB) was 100% acetonitrile; flow rate was 0.45 mL/min with a column temperature of 45° C. An amount of 10 μL sample was injected for each analysis and it was eluted with the following mobile phase profile: 0-0.5 min, 5-10% MPB, 0.5-1.5 min, 10-40% MPB, 1.5-4.0 min, 40-90% MPB, 4.0-4.4 min, 90% MPB, 4.4-4.6 min, 90-5% MPB, 4.6-5.0 min, 5% MPB. Gradient mobile phase for mycophenolic acid and metabolites: 0-1.0 min, 5-20% MPB, 1.0-1.5 min, 20% MPB, 1.5-4.0 min, 20-40% MPB, 4.0-5.0 min, 40-90% MPB, 5.0-5.5 min, 90-5% MPB, 5.5-6.0 min, 5% MPB.
To validate our results from the high-throughput fluorescent assay, a liquid chromatography-coupled tandem mass spectrometric (LC-MS/MS) method was used to monitor the reaction of UGT71G1 with 3-hydroxyflavone, bisphenol A, and SN-38.

[4] = test system: UGT71G1; conditions: previous studies; cited from earlier work

| SMILES | validation as UGT71G1 substrate (glycosylated product detected) [3] | glycosylation of hydroxyl groups by UGT71G1 [4] | other results |
| --- | --- | --- | --- |
| CCc1c2c(nc3ccc(OC(=O)N4CCC(N5CCCCC5)CC4)cc13)-c1cc3c(c(=O)n1C2)COC(=O)[C@]3(O)CC [irinotecan] | – | – | patients experiencing diarrhea [1]: 25% |
| O=c1c(O)c(-c2ccccc2)oc2ccccc12 [Sample 26, 3-Hydroxyflavone] | validated | – | fold increase in fluorescent signal / fluorescence intensity with UGT71G1, comparing to the condition without UGT71G1 [2]: 30 fold |
| CC(C)(c1ccc(O)cc1)c1ccc(O)cc1 [Sample 135, Bisphenol A] | validated | – | products formed in the reaction catalyzed by UGT71G1 ([3]; BPA 10 μM, 24 hours, major monoglycosylated, minor diglycosylated): two products |
| O=c1c(-c2ccc(O)cc2)coc2cc(O)cc(O)c12 [Sample 88, Genistein] | – | glycosylates multiple hydroxyl groups | – |
| CCc1c2c(nc3ccc(O)cc13)-c1cc3c(c(=O)n1C2)COC(=O)[C@]3(O)CC [Sample 58, 7-Ethyl-10-hydroxycamptothecin] | validated | – | – |
| COc1ccc(-c2coc3cc(O)cc(O)c3c2=O)cc1 [Sample 130, Biochanin A] | – | glycosylates multiple hydroxyl groups | – |
